Test results from ChEMBL document CHEMBL3102853, “Carbonic anhydrase inhibitors. Synthesis, and molecular structure of novel series N-substituted N'-(2-arylmethylthio-4-chloro-5-methylbenzenesulfonyl)guanidines and their inhibition of human cytosolic isozymes I and II and the transmembrane tumor-associated isozymes IX and XII” (Eur J Med Chem, 2014).
Active and inactive are the calls of the source. The rule behind the calls is not given here.

Legend:
Format in all cases: functional
[1] = test system: SW-620; experiment: Cytotoxicity against human SW620 cells at 10 uM; settings: for inhibition of growth at 10 µM: read-out: GI
[2] = test system: NCI/ADR-RES; experiment: Cytotoxicity against human NCI-ADR-RES cells at 10 uM
[3] = test system: RPMI-8226; experiment: Cytotoxicity against human RPMI8226 cells at 10 uM; settings: read-out: GI
[4] = test system: SR; experiment: Cytotoxicity against human SR cells at 10 uM; settings: read-out: GI
[5] = test system: HL-60(TB); experiment: Cytotoxicity against human HL-60(TB) cells at 10 uM; settings: read-out: GI
[6] = test system: MOLT-4; experiment: Cytotoxicity against human MOLT4 cells at 10 uM; settings: read-out: GI
[7] = test system: PC-3; experiment: Cytotoxicity against human PC3 cells at 10 uM; settings: read-out: GI
[8] = test system: T47D; experiment: Cytotoxicity against human T47D cells at 10 uM; settings: read-out: GI
[9] = test system: KM12; experiment: Cytotoxicity against human KM12 cells at 10 uM; settings: read-out: GI
[10] = test system: OVCAR-3; experiment: Cytotoxicity against human OVCAR3 cells at 10 uM; settings: for inhibition of growth at 10 µM: read-out: GI
[11] = test system: A498; experiment: Cytotoxicity against human A498 cells at 10 uM; settings: read-out: GI
[12] = test system: MDA-MB-468; experiment: Cytotoxicity against human MDA-MB-468 cells at 10 uM; settings: read-out: GI
[13] = test system: DU-145; experiment: Cytotoxicity against human DU145 cells at 10 uM; settings: for inhibition of growth at 10 µM: read-out: GI
[14] = test system: A549; experiment: Cytotoxicity against human A549 cells at 10 uM; settings: read-out: GI
[15] = test system: HT-29; experiment: Cytotoxicity against human HT-29 cells at 10 uM; settings: for inhibition of growth at 10 µM: read-out: GI
[16] = test system: K562; experiment: Cytotoxicity against human K562 cells at 10 uM; settings: read-out: GI
[17] = test system: SNB-75; experiment: Cytotoxicity against human SNB75 cells at 10 uM; settings: read-out: GI
[18] = test system: NCI-H460; experiment: Cytotoxicity against human NCI-H460 cells at 10 uM; settings: read-out: GI
[19] = test system: LOX IMVI; experiment: Cytotoxicity against human LOXIMVI cells at 10 uM; settings: read-out: GI
[20] = Cytotoxicity against human Hs 578T cells at 10 uM; settings: read-out: GI
[21] = test system: UACC-62; experiment: Cytotoxicity against human UACC62 cells at 10 uM; settings: read-out: GI
[22] = test system: SF-268; experiment: Cytotoxicity against human SF268 cells at 10 uM; settings: read-out: GI
[23] = test system: MCF7; experiment: Cytotoxicity against human MCF7 cells at 10 uM; settings: read-out: GI
[24] = test system: SK-MEL-2; experiment: Cytotoxicity against human SK-MEL-2 cells at 10 uM; settings: read-out: GI
[25] = test system: HOP-92; experiment: Cytotoxicity against human HOP92 cells at 10 uM; settings: read-out: GI

| SMILES | growth inhibition (GI) [2] | inhibition of growth at 10 µM [3] [%] | inhibition of growth at 10 µM [4] [%] | inhibition of growth at 10 µM [5] [%] | inhibition of growth at 10 µM [6] [%] | inhibition of growth at 10 µM [7] [%] | inhibition of growth at 10 µM [8] [%] | inhibition of growth at 10 µM [9] [%] | inhibition of growth at 10 µM [11] [%] | inhibition of growth at 10 µM [12] [%] | inhibition of growth at 10 µM [14] [%] | inhibition of growth at 10 µM [16] [%] | inhibition of growth at 10 µM [17] [%] | inhibition of growth at 10 µM [18] [%] | inhibition of growth at 10 µM [19] [%] | inhibition of growth at 10 µM [20] [%] | inhibition of growth at 10 µM [21] [%] | inhibition of growth at 10 µM [22] [%] | inhibition of growth at 10 µM [23] [%] | inhibition of growth at 10 µM [24] [%] | further results |
| --- | --- | --- | --- | --- | --- | --- | --- | --- | --- | --- | --- | --- | --- | --- | --- | --- | --- | --- | --- | --- | --- |
| Cc1cc(S(=O)(=O)NC(=N)Nc2cccc(S(N)(=O)=O)c2)c(SCc2ccc(C(F)(F)F)cc2)cc1Cl | inactive | 39 | 54 | 33 | 51 | 68 | 35 | 34 | 13 | 26 | 36 | 48 | 53 | 19 | 20 | 13 | 35 | 19 | 51 | 27 | inhibition of growth at 10 µM [1]: 5%; inhibition of growth at 10 µM [10]: 33%; inhibition of growth at 10 µM [13]: 6%; inhibition of growth at 10 µM [15]: 20%; inhibition of growth at 10 µM [25]: 37% |
| Cc1cc(S(=O)(=O)NC(=N)NCc2ccc(S(N)(=O)=O)cc2)c(SCc2cc3c(cc2Cl)OCO3)cc1Cl | inactive | 57 | 50 | 58 | 50 | 54 | 48 | 38 | 10 | 62 | 30 | 57 | 42 | 20 | 28 | 29 | 56 | 28 | 60 | 38 | inhibition of growth at 10 µM [1]: 8%; inhibition of growth at 10 µM [10]: 41%; inhibition of growth at 10 µM [13]: 2%; inhibition of growth at 10 µM [15]: 15%; inhibition of growth at 10 µM [25]: 57% |
| Cc1cc(S(=O)(=O)NC(=N)Nc2cccc(S(N)(=O)=O)c2)c(SCc2ccccc2)cc1Cl | inactive | 23 | 15 | 16 | 34 | 45 | 13 | 5 | 16 | 32 | 16 | 22 | 35 | 3 | 15 | 17 | 30 | 12 | 21 | 14 | growth inhibition (GI) [1]: inactive; growth inhibition (GI) [10]: inactive; growth inhibition (GI) [13]: inactive; inhibition of growth at 10 µM [15]: 8%; inhibition of growth at 10 µM [25]: 46% |
| Cc1cc(S(=O)(=O)NC(=N)NCc2ccc(S(N)(=O)=O)cc2)c(SCc2ccccc2)cc1Cl | inactive | 41 | 29 | 28 | 31 | 36 | 35 | 16 | 25 | 45 | 21 | 34 | 43 | 10 | 12 | 44 | 49 | 16 | 37 | 32 | inhibition of growth at 10 µM [1]: 4%; inhibition of growth at 10 µM [10]: 24%; growth inhibition (GI) [13]: inactive; growth inhibition (GI) [15]: inactive; inhibition of growth at 10 µM [25]: 63% |
